Test results from patent US9765091B2, “Tetrahydropyrazolo [3,4-b] azepine derivatives and their use as allosteric modulators of metabotropic glutamate receptors” (Addex Pharma S.A., priority 2010, dated 2017).

What follows are compounds tested against T1, human mGluR4 (Homo sapiens, UniProt Q14833) (assay: Fluorescent cell based Ca2+ mobilization assay (FLIPR) on HEK-293 cells expressing human mGluR4). Conditions: positive allosteric modulation, HEK-293 cells expressing hmGluR4, stimulated by EC25 glutamate; mean of at least three independent experiments in duplicate; read-out: Ca^2+ Flux* (mean EC50).
T1 construct: expressed in transfected cells
T1 sequence (Q14833 33-912): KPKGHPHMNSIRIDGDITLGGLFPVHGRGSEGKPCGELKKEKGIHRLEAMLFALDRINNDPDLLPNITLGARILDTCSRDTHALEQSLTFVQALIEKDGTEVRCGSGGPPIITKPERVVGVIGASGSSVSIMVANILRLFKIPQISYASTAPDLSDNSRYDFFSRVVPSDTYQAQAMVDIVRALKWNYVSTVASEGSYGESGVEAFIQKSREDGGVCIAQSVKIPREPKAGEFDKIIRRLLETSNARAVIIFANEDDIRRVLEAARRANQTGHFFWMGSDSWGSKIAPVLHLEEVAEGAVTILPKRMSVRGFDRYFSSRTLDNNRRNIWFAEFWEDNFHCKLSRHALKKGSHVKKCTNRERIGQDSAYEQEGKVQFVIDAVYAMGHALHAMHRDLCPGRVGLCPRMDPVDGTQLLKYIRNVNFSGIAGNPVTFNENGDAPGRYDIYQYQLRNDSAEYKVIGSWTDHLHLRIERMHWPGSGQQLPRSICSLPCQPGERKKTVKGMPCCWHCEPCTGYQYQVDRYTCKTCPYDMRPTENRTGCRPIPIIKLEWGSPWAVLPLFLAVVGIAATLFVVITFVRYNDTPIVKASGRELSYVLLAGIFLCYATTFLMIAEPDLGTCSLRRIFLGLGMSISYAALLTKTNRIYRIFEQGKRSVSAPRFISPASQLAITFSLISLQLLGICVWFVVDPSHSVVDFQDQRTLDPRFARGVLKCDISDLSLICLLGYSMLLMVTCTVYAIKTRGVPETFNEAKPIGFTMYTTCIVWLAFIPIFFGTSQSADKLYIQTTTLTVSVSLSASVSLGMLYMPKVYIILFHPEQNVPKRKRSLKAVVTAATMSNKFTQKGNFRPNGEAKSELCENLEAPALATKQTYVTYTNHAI
Description: mGluR4 Assay on HEK-Expressing Human mGluR4
The compounds of the present invention are positive allosteric modulators of mGluR4 receptor. Their activity was examined on recombinant human mGluR4a receptors by detecting changes in intracellular Ca^2+ concentration, using the fluorescent Ca^2+-sensitive dye Fluo4-(AM) and a Fluorometric Imaging Plate Reader (FLIPR, Molecular Devices, Sunnyvale, Calif.).
The cDNA encoding the human metabotropic glutamate receptor (hmGluR4), (accession number NM_000841.1, NCBI Nucleotide database browser), was subcloned into an expression vector containing also the hygromycin resistance gene. In parallel, the cDNA encoding a G protein allowing redirection of the activation signal to intracellular calcium flux was subcloned into a different expression vector containing also the puromycin resistance gene. Transfection of both these vectors into HEK293 cells with PolyFect reagent (Qiagen) according to supplier's protocol, and hygromycin and puromycin treatment allowed selection of antibiotic resistant cells which had integrated stably one or more copies of the plasmids. Positive cellular clones expressing hmGluR4 were identified in a functional assay measuring changes in calcium fluxes in response to glutamate or selective known mGluR4 orthosteric agonists and antagonists. HEK-293 cells expressing hmGluR4 were maintained in media containing DMEM, dialyzed Fetal Calf Serum (10%), Glutamax™ (2 mM), Penicillin (100 units/mL), Streptomycin (100 μg/mL), Geneticin (100 μg/mL) and Hygromycin-B (40 μg/mL) and puromycin (1 μg/mL) at 37° C./5% CO2.
Human mGluR4 HEK-293 cells were plated out 24 hours prior to FLIPR^384 assay in black-walled, clear-bottomed, poly-L-ornithine-coated 384-well plates at a density of 25,000 cells/well in a glutamine/glutamate free DMEM medium containing foetal bovine serum (10%), penicillin (100 units/mL) and streptomycin (100 μg/mL) at 37° C./5% CO2.
On the day of the assay, the medium was aspirated and the cells were loaded with a 3 μM solution of Fluo4-AM (LuBioScience, Lucerne, Switzerland) in 0.03% pluronic acid. After 1 hour at 37° C./5% CO2, the non incorporated dye was removed by washing cell plate with the assay buffer and the cells were left in the dark at room temperature for […] before testing. All assays were performed in a pH 7.4 buffered-solution containing 20 mM HEPES, 143 mM NaCl, 6 mM KCl, 1 mM MgSO4, 1 mM CaCl2, 0.125 mM sulfapyrazone and 0.1% glucose.
After 10 s of basal fluorescence recording, various concentrations of the compounds of the invention were added to the cells. Changes in fluorescence levels were first monitored for 180 s in order to detect any agonist activity of the compounds. Then the cells were stimulated by an EC25 glutamate concentration for an additional 110 s in order to measure enhancing activities of the compounds of the invention. EC25 glutamate concentration is the concentration giving 25% of the maximal glutamate response.
The concentration-response curves of representative compounds of the present invention were generated using the Prism GraphPad software (Graph Pad Inc, San Diego, USA). The curves were fitted to a four-parameter logistic equation: (Y=Bottom+(Top−Bottom)/(1+10^((Log EC50−X)*Hill Slope) allowing the determination of EC50 values.
The Table 4 below represents the mean EC50 obtained from at least three independent experiments of selected molecules performed in duplicate.

**Q.** For `COCCN1CCc2sc(Nc3nccc(OC)n3)nc2-c2c[nH]nc21` [Compound 1-18, 6-(2-Methoxyethyl)-N-(4-methoxypyrimidin-2-yl)-4,5,6,8-tetrahydropyrazolo[3,4-b]thiazolo[4,5-d]azepin-2-amine], which EC50 is on record?
**A.** The EC50 was < 100 nM.

**Q.** For `Fc1cnc(Nc2nc3c(s2)CCN(Cc2ccn[nH]2)c2n[nH]cc2-3)nc1` [Compound 1-56, 6-((1H-Pyrazol-5-yl)methyl)-N-(5-fluoropyrimidin-2-yl)-4,5,6,8-tetrahydropyrazolo[3,4-b]thiazolo[4,5-d]azepin-2-amine], which EC50 is on record?
**A.** The EC50 was 100 to 1000 nM.

**Q.** Which EC50 does the source give for `Fc1cnc(Nc2nc3c(s2)CCN(Cc2ccc(C(F)(F)F)cc2)c2[nH]ncc2-3)nc1` [Compound 1-69, N-(5-Fluoropyrimidin-2-yl)-6-(4-(trifluoromethyl)benzyl)-4,5,6,7-tetrahydropyrazolo[3,4-b]thiazolo[4,5-d]azepin-2-amine] here?
**A.** Its EC50 is 100 to 1000 nM.

**Q.** For `COCCN1CCc2sc(Nc3cccc(C)n3)nc2-c2c[nH]nc21` [Compound 1-13, 6-(2-Methoxyethyl)-N-(6-methylpyridin-2-yl)-4,5,6,8-tetrahydropyrazolo[3,4-b]thiazolo[4,5-d]azepin-2-amine], which EC50 is on record?
**A.** Its EC50 is < 100 nM.

**Q.** With `N#Cc1ccc(CN2CCc3sc(Nc4ncc(F)cn4)nc3-c3cn[nH]c32)cc1` [Compound 1-68, 4-((2-(5-Fluoropyrimidin-2-ylamino)-4,5-dihydropyrazolo[3,4-b]thiazolo[4,5-d]azepin-6(7H)-yl)methyl)benzonitrile] as the compound, how does the EC50 read?
**A.** Its EC50 is < 100 nM.

**Q.** How did the EC50 turn out when `Cc1cc(CN2CCc3sc(Nc4ncc(F)cn4)nc3-c3c[nH]nc32)no1` [Compound 1-22, N-(5-Fluoropyrimidin-2-yl)-6-((5-methylisoxazol-3-yl)methyl)-4,5,6,8-tetrahydropyrazolo[3,4-b]thiazolo[4,5-d]azepin-2-amine] was run?
**A.** The EC50 was < 100 nM.

**Q.** For `Fc1cnc(Nc2nc3c(s2)CCN(CC2CCCO2)c2[nH]ncc2-3)nc1` (stereo not shown) [Compound 1-48, N-(5-Fluoropyrimidin-2-yl)-6-((tetrahydrofuran-2-yl)methyl)-4,5,6,7-tetrahydropyrazolo[3,4-b]thiazolo[4,5-d]azepin-2-amine], which EC50 is on record?
**A.** Its EC50 is < 100 nM.

**Q.** Which EC50 does the source give for `Cn1ncc(CN2CCc3sc(Nc4ncc(F)cn4)nc3-c3cn[nH]c32)n1` [Compound 1-52, N-(5-Fluoropyrimidin-2-yl)-6-((2-methyl-2H-1,2,3-triazol-4-yl)methyl)-4,5,6,7-tetrahydropyrazolo[3,4-b]thiazolo[4,5-d]azepin-2-amine] here?
**A.** Its EC50 is < 100 nM.

**Q.** How did the EC50 turn out when `Fc1cnc(Nc2nc3c(s2)CCN(C2CCOC2)c2n[nH]cc2-3)nc1` (stereo not shown) [Compound 1-31, N-(5-Fluoropyrimidin-2-yl)-6-(tetrahydrofuran-3-yl)-4,5,6,8-tetrahydropyrazolo[3,4-b]thiazolo[4,5-d]azepin-2-amine] was run?
**A.** Its EC50 is < 100 nM.

**Q.** For `COCCN1CCc2sc(Nc3cccc(N)n3)nc2-c2c[nH]nc21` [Compound 1-21, N^2-(6-(2-Methoxyethyl)-4,5,6,8-tetrahydropyrazolo[3,4-b]thiazolo[4,5-d]azepin-2-yl) pyridine-2,6-diamine], which EC50 is on record?
**A.** Its EC50 is < 100 nM.

**Q.** For `COCCN1CCc2sc(Nc3ccncn3)nc2-c2c[nH]nc21` [Compound 1-55, 6-(2-Methoxyethyl)-N-(pyrimidin-4-yl)-4,5,6,8-tetrahydropyrazolo[3,4-b]thiazolo[4,5-d]azepin-2-amine], which EC50 is on record?
**A.** Its EC50 is 1000 to 10000 nM.

**Q.** For `CS(=O)(=O)CCN1CCc2sc(Nc3ncc(F)cn3)nc2-c2c[nH]nc21` [Compound 1-28, N-(5-Fluoropyrimidin-2-yl)-6-(2-(methylsulfonyl)ethyl)-4,5,6,8-tetrahydropyrazolo[3,4-b]thiazolo[4,5-d]azepin-2-amine], which EC50 is on record?
**A.** The EC50 was < 100 nM.

**Q.** For `Fc1cnc(Nc2nc3c(s2)CCN(Cc2ncccc2Cl)c2[nH]ncc2-3)nc1` [Compound 1-64, 6-((3-Chloropyridin-2-yl)methyl)-N-(5-fluoropyrimidin-2-yl)-4,5,6,7-tetrahydropyrazolo[3,4-b]thiazolo[4,5-d]azepin-2-amine], which EC50 is on record?
**A.** The EC50 was 100 to 1000 nM.

**Q.** For `Fc1cnc(Nc2nc3c(s2)CCN(CC2CCCCC2)c2n[nH]cc2-3)nc1` [Compound 1-38, 6-(Cyclohexylmethyl)-N-(5-fluoropyrimidin-2-yl)-4,5,6,8-tetrahydropyrazolo[3,4-b]thiazolo[4,5-d]azepin-2-amine], which EC50 is on record?
**A.** The EC50 was < 100 nM.

**Q.** `COCCN1CCc2sc(Nc3nccc(C)n3)nc2-c2c[nH]nc21` [Compound 1-7, 6-(2-Methoxyethyl)-N-(4-methylpyrimidin-2-yl)-4,5,6,8-tetrahydropyrazolo[3,4-b]thiazolo[4,5-d]azepin-2-amine] was tested. Which EC50 did it give?
**A.** The EC50 was < 100 nM.

**Q.** How did the EC50 turn out when `COCCN1CCc2sc(Nc3ccnc(C)n3)nc2-c2c[nH]nc21` [Compound 1-54, 6-(2-Methoxyethyl)-N-(2-methylpyrimidin-4-yl)-4,5,6,8-tetrahydropyrazolo[3,4-b]thiazolo[4,5-d]azepin-2-amine] was run?
**A.** Its EC50 is 1000 to 10000 nM.

**Q.** With `CC(C)N1CCc2sc(Nc3ncc(F)cn3)nc2-c2c[nH]nc21` [Compound 1-6, N-(5-Fluoropyrimidin-2-yl)-6-isopropyl-4,5,6,8-tetrahydropyrazolo[3,4-b]thiazolo[4,5-d]azepin-2-amine] as the compound, how does the EC50 read?
**A.** The EC50 was < 100 nM.

**Q.** Which EC50 does the source give for `OCCN1CCc2sc(Nc3ncc(F)cn3)nc2-c2c[nH]nc21` [Compound 1-20, 2-(2-(5-Fluoropyrimidin-2-ylamino)-4,5-dihydropyrazolo[3,4-b]thiazolo[4,5-d]azepin-6(8H)-yl)ethanol] here?
**A.** The EC50 was 100 to 1000 nM.

**Q.** `Fc1cnc(Nc2nc3c(s2)CCN(C[C@H]2CCCO2)c2[nH]ncc2-3)nc1` [Compound 1-51] was tested. Which EC50 did it give?
**A.** The EC50 was < 100 nM.

**Q.** Which EC50 does the source give for `COCCN1CCc2sc(Nc3ncc(O)cn3)nc2-c2cn[nH]c21` [Compound 1-50, 2-(6-(2-Methoxyethyl)-4,5,6,7-tetrahydropyrazolo[3,4-b]thiazolo[4,5-d]azepin-2-ylamino)pyrimidin-5-ol] here?
**A.** Its EC50 is < 100 nM.

**Q.** `CN1CCc2sc(Nc3ncc(F)cn3)nc2-c2c[nH]nc21` [Compound 1-2, N-(5-Fluoropyrimidin-2-yl)-6-methyl-4,5,6,8-tetrahydropyrazolo[3,4-b]thiazolo[4,5-d]azepin-2-amine] was tested. Which EC50 did it give?
**A.** Its EC50 is 100 to 1000 nM.

**Q.** Which EC50 does the source give for `Fc1cnc(Nc2nc3c(s2)CCN(Cc2ccc(Cl)cn2)c2n[nH]cc2-3)nc1` [Compound 1-41, 6-((5-Chloropyridin-2-yl)methyl)-N-(5-fluoropyrimidin-2-yl)-4,5,6,8-tetrahydropyrazolo[3,4-b]thiazolo[4,5-d]azepin-2-amine] here?
**A.** Its EC50 is < 100 nM.

**Q.** Which EC50 does the source give for `COCCN1CCc2sc(Nc3nsc(C)n3)nc2-c2c[nH]nc21` [Compound 1-19, 6-(2-Methoxyethyl)-N-(5-methyl-1,2,4-thiadiazol-3-yl)-4,5,6,8-tetrahydropyrazolo[3,4-b]thiazolo[4,5-d]azepin-2-amine] here?
**A.** Its EC50 is < 100 nM.

**Q.** With `Cc1ccnc(Nc2nc3c(s2)CCN(CC(=O)N(C)C)c2n[nH]cc2-3)n1` [Compound 1-17, N,N-Dimethyl-2-(2-(4-methylpyrimidin-2-ylamino)-4,5-dihydropyrazolo[3,4-b]thiazolo[4,5-d]azepin-6(8H)-yl)acetamide] as the compound, how does the EC50 read?
**A.** The EC50 was 100 to 1000 nM.

**Q.** For `Fc1cnc(Nc2nc3c(s2)CCN(Cc2[nH]ncc2Br)c2n[nH]cc2-3)nc1` [Compound 1-57, 6-((4-Bromo-1H-pyrazol-5-yl)methyl)-N-(5-fluoropyrimidin-2-yl)-4,5,6,8-tetrahydropyrazolo[3,4-b]thiazolo[4,5-d]azepin-2-amine], which EC50 is on record?
**A.** Its EC50 is 1000 to 10000 nM.

**Q.** With `COCCCN1CCc2sc(Nc3ncc(F)cn3)nc2-c2c[nH]nc21` [Compound 1-33, N-(5-Fluoropyrimidin-2-yl)-6-(3-methoxypropyl)-4,5,6,8-tetrahydropyrazolo[3,4-b]thiazolo[4,5-d]azepin-2-amine] as the compound, how does the EC50 read?
**A.** Its EC50 is < 100 nM.

**Q.** For `Cc1ccnc(Nc2nc3c(s2)CCN(CC2CC2)c2n[nH]cc2-3)n1` [Compound 1-37, 6-(Cyclopropylmethyl)-N-(4-methylpyrimidin-2-yl)-4,5,6,8-tetrahydropyrazolo[3,4-b]thiazolo[4,5-d]azepin-2-amine], which EC50 is on record?
**A.** The EC50 was < 100 nM.

**Q.** `Fc1cnc(Nc2nc3c(s2)CCN(CC2CC2)c2n[nH]cc2-3)nc1` [Compound 1-4, 6-(Cyclopropylmethyl)-N-(5-fluoropyrimidin-2-yl)-4,5,6,8-tetrahydropyrazolo[3,4-b]thiazolo[4,5-d]azepin-2-amine] was tested. Which EC50 did it give?
**A.** The EC50 was < 100 nM.
